Measured values taken from patent US8809341B2, “2,4-pyrimidinediamine compounds and uses as anti-proliferative agents” (Rigel Pharmaceuticals, Inc., priority 2003, dated 2014).

Key:
[1] = system: A549 cells; experiment: in vitro antiproliferation assay, A549 (lung); assay type: cell-based; details: in vitro antiproliferation, A549 (lung) cells
How it was run: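 Standard in vitro antiproliferation assays on tumour cell lines, including A549 and H1299 (both lung); IC50 values determined.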

[2] = system: H1299 cells; experiment: in vitro antiproliferation assay, H1299 (lung); assay type: cell-based; details: in vitro antiproliferation, H1299 (lung) cells
Procedure: The IC50 values of various compounds against a various different tumor cell lines were determined using standard in vitro antiproliferation assays. The tumor cell lines tested were as follows: A549 (lung); H1299 (lung), ACHN (kidney/p53 wt), CAKI (renal cell carcinoma), NCI-H460 (lung); HCT116 (colon/p53w0; HELA (cervix/p53 wt), HUH7 (liver/p53 wt), HUVEC (primary endothelial), LNCAP (prostate), HT-29 (colon); MCF-7 (breast); MCF-7 (breast/ER positive), MDA MB435S (breast); MDA MB231 (breast/ER negative), DU145 (prostate); BxPC-3 (pancreatic); SKOV-3 (ovarian); HepG2 (hepatic), NDHF primary normal human dermal fibroblast), SKMEL28 (breast/p53mut), SKMEL5 (breast/p53 wt), U20S (bone) and PC3 (prostate). […] A blank indicates the specified compound was not tested against the specified cell line.

[3] = Table 4, compounds with no designated stereochemistry tested as racemate

| IC50 [1, 3] | IC50 [2, 3] | IC50 ([1]; Table 5) | IC50 ([2]; Table 5) | SMILES |
| --- | --- | --- | --- | --- |
| > 20 µM | > 20 µM | – | – | COc1cc(Nc2ncc(F)c(Nc3ccc4c(c3)NC(=O)C(C)(C)S4(=O)=O)n2)cc(OC)c1 [compound 263] |
| > 20 µM | ≤ 20 µM | – | – | Cc1cc(C)cc(Nc2ncc(F)c(Nc3ccc4c(c3)NC(=O)C(C)(C)S4(=O)=O)n2)c1 [compound 264] |
| ≤ 20 µM | ≤ 20 µM | – | – | COc1cc(Nc2ncc(F)c(Nc3ccc4c(c3)NC(=O)C(C)(C)S4(=O)=O)n2)cc(OC)c1OC [compound 265] |
| ≤ 20 µM | ≤ 20 µM | – | – | COc1ccc(Nc2ncc(F)c(Nc3ccc4c(c3)NC(=O)C(C)(C)S4(=O)=O)n2)cc1F [compound 287] |
| ≤ 20 µM | ≤ 20 µM | – | – | COc1ccc(Nc2ncc(F)c(Nc3ccc4c(c3)NC(=O)C(C)(C)S4)n2)cc1F [compound 289] |
| ≤ 20 µM | ≤ 20 µM | – | – | COc1ccc(Nc2ncc(F)c(Nc3ccc4c(c3)NC(=O)CS4)n2)cc1F [compound 290] |
| ≤ 20 µM | > 20 µM | – | – | CNC(=O)COc1cccc(Nc2ncc(F)c(Nc3ccc4c(c3)N(C)C(=O)CO4)n2)c1 [compound 299] |
| ≤ 20 µM | ≤ 20 µM | – | – | CC1(C)Oc2ccc(Nc3nc(Nc4cc(CO)cc(CO)c4)ncc3F)cc2NC1=O [compound 320] |
| ≤ 20 µM | ≤ 20 µM | – | – | COc1cc(Cl)cc(Nc2ncc(F)c(Nc3ccc4c(c3)NC(=O)C(C)(C)O4)n2)c1 [compound 321] |
| ≤ 20 µM | ≤ 20 µM | – | – | COc1cc(Nc2ncc(F)c(N(C)c3ccc4c(c3)NC(=O)C(C)(C)O4)n2)cc(OC)c1 [compound 323] |
| ≤ 20 µM | > 20 µM | – | – | Cc1cc(C)cc(Nc2ncc(F)c(N(C)c3ccc4c(c3)N(C)C(=O)C(C)(C)O4)n2)c1 [compound 324] |
| ≤ 20 µM | ≤ 20 µM | – | – | COc1ccc(Nc2ncc(F)c(N(C)c3ccc4c(c3)N(C)C(=O)C(C)(C)O4)n2)cc1Cl [compound 325] |
| ≤ 20 µM | ≤ 20 µM | – | – | COc1cc(Nc2ncc(F)c(N(C)c3ccc4c(c3)N(C)C(=O)C(C)(C)O4)n2)cc(OC)c1 [compound 326] |
| ≤ 20 µM | ≤ 20 µM | – | – | COc1ccc(Nc2ncc(F)c(N(C)c3ccc4c(c3)NC(=O)C(C)(C)O4)n2)cc1Cl [compound 327] |
| – | – | > 20 µM | ≤ 20 µM | CCOC(=O)COc1cccc(Nc2ncc(F)c(Nc3ccc4c(c3)OCCO4)n2)c1 [compound 491] |
| – | – | ≤ 20 µM | ≤ 20 µM | Fc1cnc(Nc2cccc(Cl)c2)nc1Nc1ccc2c(c1)OC(F)(F)O2 [compound 513] |
| – | – | ≤ 20 µM | ≤ 20 µM | Fc1cnc(Nc2cccc(-c3ncco3)c2)nc1Nc1ccc2c(c1)OCCO2 [compound 515] |
| – | – | ≤ 20 µM | > 20 µM | Cc1cc(O)cc(Nc2ncc(F)c(Nc3ccc4c(c3)OCCO4)n2)c1 [compound 521] |
| – | – | > 20 µM | > 20 µM | Fc1cc(Nc2ncc(F)c(Nc3ccc4c(c3)OCCO4)n2)cc(C(F)(F)F)c1 [compound 522] |
| – | – | > 20 µM | > 20 µM | Fc1cc(F)cc(Nc2ncc(F)c(Nc3ccc4c(c3)OCCO4)n2)c1 [compound 524] |

| IC50 [1, 3] | IC50 [2, 3] | IC50 ([1]; Table 5) | IC50 ([2]; Table 5) | SMILES |
| --- | --- | --- | --- | --- |
| – | – | ≤ 20 µM | > 20 µM | Fc1cnc(Nc2ccc(OC(F)F)c(Cl)c2)nc1Nc1ccc2c(c1)OCCO2 [compound 526] |
| – | – | ≤ 20 µM | ≤ 20 µM | Fc1cnc(Nc2cc(Cl)cc(Cl)c2)nc1Nc1ccc2c(c1)OCCO2 [compound 530] |
| – | – | > 20 µM | ≤ 20 µM | COc1cc(Nc2ncc(F)c(Nc3ccc4c(c3)OCCO4)n2)cc(C(F)(F)F)c1 [compound 531] |
| – | – | ≤ 20 µM | ≤ 20 µM | COc1cc(Nc2ncc(F)c(Nc3ccc4c(c3)OC(F)(F)C(F)(F)O4)n2)cc(OC)c1 [compound 532] |
| – | – | > 20 µM | ≤ 20 µM | Cc1cc(Nc2ncc(F)c(Nc3ccc4c(c3)OC(F)(F)C(F)(F)O4)n2)cc(C)c1Cl [compound 533] |
| – | – | ≤ 20 µM | ≤ 20 µM | Fc1cnc(Nc2cc(Cl)cc(Cl)c2)nc1Nc1ccc2c(c1)OC(F)(F)C(F)(F)O2 [compound 535] |
| – | – | ≤ 20 µM | ≤ 20 µM | COc1cc(Nc2ncc(F)c(Nc3ccc4c(c3)OC(F)(F)C(F)(F)O4)n2)cc(C(F)(F)F)c1 [compound 536] |
| – | – | ≤ 20 µM | ≤ 20 µM | Cc1cc(C)cc(Nc2ncc(F)c(Nc3ccc4c(c3)OC(F)(F)C(F)(F)O4)n2)c1 [compound 537] |
| – | – | ≤ 20 µM | > 20 µM | Cc1cc(Nc2ncc(F)c(Nc3ccc4c(c3)OC(F)(F)C(F)(F)O4)n2)cc(C(F)(F)F)c1 [compound 538] |
| – | – | ≤ 20 µM | ≤ 20 µM | COc1cc(Cl)cc(Nc2ncc(F)c(Nc3ccc4c(c3)OCCO4)n2)c1 [compound 539] |
| – | – | ≤ 20 µM | ≤ 20 µM | COc1cc(Nc2ncc(F)c(Nc3ccc4c(c3)OCO4)n2)cc(C(F)(F)F)c1 [compound 541] |
| – | – | > 20 µM | > 20 µM | Cc1cc(Nc2ncc(F)c(Nc3ccc4c(c3)OCO4)n2)cc(C(F)(F)F)c1 [compound 542] |
| – | – | ≤ 20 µM | ≤ 20 µM | Fc1cnc(Nc2cc(Cl)cc(Cl)c2)nc1Nc1ccc2c(c1)OCO2 [compound 543] |
| – | – | > 20 µM | > 20 µM | Cc1cc(C)cc(Nc2ncc(F)c(Nc3ccc4c(c3)OCO4)n2)c1 [compound 544] |
| – | – | ≤ 20 µM | > 20 µM | COc1cc(Nc2ncc(F)c(N(C)c3ccc4c(c3)OCCO4)n2)cc(OC)c1 [compound 546] |
| – | – | ≤ 20 µM | ≤ 20 µM | Cc1cc(C)cc(Nc2ncc(F)c(N(C)c3ccc4c(c3)OCCO4)n2)c1 [compound 547] |
| – | – | ≤ 20 µM | ≤ 20 µM | CN(c1ccc2c(c1)OCCO2)c1nc(Nc2cccc(-c3ncco3)c2)ncc1F [compound 549] |
| – | – | ≤ 20 µM | ≤ 20 µM | CC(=O)N1CCN(c2cccc(Nc3ncc(F)c(Nc4ccc5c(c4)OCCO5)n3)c2)CC1 [compound 550] |
| – | – | ≤ 20 µM | ≤ 20 µM | CC(=O)N1CCN(c2cccc(Nc3ncc(F)c(Nc4ccc5c(c4)OC(F)(F)C(F)(F)O5)n3)c2)CC1 [compound 552] |
| – | – | ≤ 20 µM | ≤ 20 µM | CC(=O)N1CCN(c2ccc(Nc3ncc(F)c(Nc4ccc5c(c4)OC(F)(F)C(F)(F)O5)n3)cc2)CC1 [compound 553] |

| IC50 [1, 3] | IC50 [2, 3] | IC50 ([1]; Table 5) | IC50 ([2]; Table 5) | SMILES |
| --- | --- | --- | --- | --- |
| – | – | ≤ 20 µM | ≤ 20 µM | CNC(=O)c1ccc(Nc2ncc(F)c(Nc3ccc4c(c3)OCCO4)n2)cc1Cl [compound 554] |
| – | – | ≤ 20 µM | ≤ 20 µM | COC(=O)c1cc(Nc2ncc(F)c(Nc3ccc4c(c3)OCCO4)n2)cc(-c2ncco2)c1 [compound 558] |
| – | – | ≤ 20 µM | ≤ 20 µM | Fc1cnc(Nc2cc(-c3ncco3)cc(C(F)(F)F)c2)nc1Nc1ccc2c(c1)OCCO2 [compound 559] |
| – | – | ≤ 20 µM | ≤ 20 µM | COc1cc(Nc2ncc(F)c(Nc3ccc4c(c3)OC(F)(F)O4)n2)cc(OC)c1OC [compound 560] |
| – | – | ≤ 20 µM | ≤ 20 µM | COc1cc(Nc2ncc(F)c(Nc3ccc4c(c3)OC(F)(F)O4)n2)cc(OC)c1 [compound 561] |
| – | – | ≤ 20 µM | ≤ 20 µM | Cc1cc(C)cc(Nc2ncc(F)c(Nc3ccc4c(c3)OC(F)(F)O4)n2)c1 [compound 562] |
| – | – | ≤ 20 µM | ≤ 20 µM | Oc1c(Cl)cc(Nc2ncc(F)c(Nc3ccc4c(c3)OC(F)(F)O4)n2)cc1Cl [compound 563] |
| – | – | ≤ 20 µM | ≤ 20 µM | Fc1cnc(Nc2cc(Cl)cc(Cl)c2)nc1Nc1ccc2c(c1)OC(F)(F)O2 [compound 564] |
| – | – | > 20 µM | > 20 µM | Cc1cc(Nc2ncc(F)c(Nc3ccc4c(c3)OC(F)(F)O4)n2)cc(C)c1Cl [compound 565] |
| – | – | ≤ 20 µM | ≤ 20 µM | Cc1cc(Nc2ncc(F)c(Nc3ccc4c(c3)OC(F)(F)O4)n2)cc(Cl)c1O [compound 566] |
| – | – | ≤ 20 µM | ≤ 20 µM | COc1cc(Nc2ncc(F)c(Nc3ccc4c(c3)OC(F)(F)O4)n2)cc(C(F)(F)F)c1 [compound 567] |
| – | – | > 20 µM | ≤ 20 µM | Cc1cc(Nc2ncc(F)c(Nc3ccc4c(c3)OC(F)(F)O4)n2)cc(C(F)(F)F)c1 [compound 568] |
| – | – | ≤ 20 µM | ≤ 20 µM | CNC(=O)COc1c(C)cc(Nc2ncc(F)c(Nc3ccc4c(c3)OCCO4)n2)cc1C [compound 569] |
| – | – | ≤ 20 µM | ≤ 20 µM | CNC(=O)COc1c(C)cc(Nc2ncc(F)c(Nc3ccc4c(c3)OCO4)n2)cc1C [compound 570] |
| – | – | ≤ 20 µM | ≤ 20 µM | Fc1cnc(Nc2cccc(-c3ncco3)c2)nc1Nc1ccc2c(c1)OC(F)(F)C(F)(F)O2 [compound 571] |
| – | – | ≤ 20 µM | ≤ 20 µM | CN(c1ccc2c(c1)OC(F)(F)C(F)(F)O2)c1nc(Nc2cccc(-c3ncco3)c2)ncc1F [compound 572] |
| – | – | ≤ 20 µM | ≤ 20 µM | CNC(=O)COc1c(C)cc(Nc2ncc(F)c(N(C)c3ccc4c(c3)OCCO4)n2)cc1C [compound 573] |
| – | – | ≤ 20 µM | ≤ 20 µM | CNC(=O)COc1c(C)cc(Nc2ncc(F)c(N(C)c3ccc4c(c3)OC(F)(F)C(F)(F)O4)n2)cc1C [compound 574] |
| – | – | ≤ 20 µM | ≤ 20 µM | CNC(=O)COc1c(C)cc(Nc2ncc(F)c(Nc3ccc4c(c3)OC(F)(F)C(F)(F)O4)n2)cc1C [compound 575] |
